According to US11180487B2, “Substituted cyanoindoline derivatives as NIK inhibitors” (Janssen Pharmaceutica NV, priority 2016, dated 2021):

Legend:
[1] = test system: KMS12-BM (NIK WT) multiple myeloma cells; experiment: Antiproliferative activity on KMS12-BM multiple myeloma cells (CellTiter-Glo, 96 hr), Biological Assay C; type: cell-based, human; settings: Homo sapiens, KMS-12-BM, 96 h, averaged values, read-out: KMS-12 Proliferation inhibition (IC50 (nM))
Summary of the method: (§1)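 JJN-3 and KMS12-BM cells in RPMI 1640 with 10% FCS were plated at 15000–20000 cells/well and treated 96 h with a 9-point 1:3 dilution series (0.3% DMSO). Viability read by CellTiter-Glo luminescence, blank (time-zero cells) subtracted, expressed as % of untreated control; duplicate wells.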

[2] = test system: P-IKKα levels in L363 (NIK translocated multiple myeloma) cells; experiment: Effect of compounds on P-IKKα levels in L363 cells (Mesoscale sandwich immuno-assay), Biological Assay B; type: cell-based, human; settings: Homo sapiens, L-363, 2 h, 2 hr treatment, averaged values, read-out: Inhibition of pIKKα_L-363 (IC50 (nM))
Protocol: Effect of Compounds on P-IKKα Levels in L363 (NIK Translocated Multiple Myeloma) Cells
All compounds tested were dissolved in DMSO and further dilutions were made in culture medium. Final DMSO concentration was 1% (v/v) in cell assays. The human L363 cells (ATCC) were cultured in RPMI 1640 medium supplemented with GlutaMax and 10% fetal calf serum (PAA). Cells were routinely maintained at densities of 0.2×10^6 cells per ml-1×10^6 cells per ml at 37° C. in a humidified 5% CO2 atmosphere. Cells were passaged twice a week splitting back to obtain the low density. Cells were seeded in 96 well plates (Nunc 167008) at 2×10^6 per ml media in a volume of 75 μl per well plus 25 μl 1 μg/ml recombinant human B-cell activating factor (BAFF/BLyS/TNFSF13B). Seeded cells were incubated at 37° C. in a humidified 5% CO2 atmosphere for 24 hr. Drugs and/or solvents were added (20 μl) to a final volume of 120 μl. Following 2 hr treatment plates were removed from the incubator and cell lysis was achieved by the addition of 30 μl 5× lysis buffer followed by shaking on a plate shaker at 4° C. for 10 min. At the end of this incubation lysed cells were centrifuged at 800×g for 20 min at 4° C. and the lysate was assessed for P-IKKα levels by sandwich immuno-assay carried out in anti-rabbit antibody coated Mesoscale plates. Within an experiment, the results for each treatment were the mean of 2 replicate wells. For initial screening purposes, compounds were tested using an 8 point dilution curve (serial 1:3 dilutions). For each experiment, controls (containing MG132 and BAFF but no test drug) and a blank incubation (containing MG132 and BAFF and 10 μM ADS125117, a test concentration known to give full inhibition) were run in parallel. The blank incubation value was subtracted from all control and sample values. To determine the IC50 a sigmoidal curve was fitted to the plot of % inhibition of control P-IKKα levels versus Log10 compound concentration.
Note: Compounds 237 and 238 were tested at a maximum top concentration of 823 nM.

[3] = test system: JJN-3 (NIK translocated) multiple myeloma cells; experiment: Antiproliferative activity on JJN-3 multiple myeloma cells (CellTiter-Glo, 96 hr), Biological Assay C; type: cell-based, human; settings: Homo sapiens, JJN-3, 96 h, JJN-3 (NIK translocated) cells, averaged values, read-out: JJN-3 Proliferation inhibition (IC50 (nM))
Summary of the method: as §1

[4] = target: recombinant human NF-kappaB-inducing kinase (NIK/MAP3K14) (Homo sapiens, UniProt Q99558); experiment: Inhibition of auto-phosphorylation of recombinant human NIK/MAP3K14 activity (AlphaScreen), Biological Assay A; type: biochemical; settings: averaged values over all measurements on all batches
Summary of the method: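 GST-tagged enzyme (0.2 nM) incubated with compound and 25 μM ATP in 50 mM Tris pH 7.5, 5 mM MgCl2, 1 mM EGTA, 1 mM DTT, 0.1 mM Na3VO4, 1% DMSO, 1 h at 25 °C. Stopped with anti-phospho-IKK Ser176/180 antibody; AlphaScreen bead read, blank-subtracted, IC50 from sigmoidal fit.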

Chain of recombinant human NF-kappaB-inducing kinase (NIK/MAP3K14) (Q99558 whole entry): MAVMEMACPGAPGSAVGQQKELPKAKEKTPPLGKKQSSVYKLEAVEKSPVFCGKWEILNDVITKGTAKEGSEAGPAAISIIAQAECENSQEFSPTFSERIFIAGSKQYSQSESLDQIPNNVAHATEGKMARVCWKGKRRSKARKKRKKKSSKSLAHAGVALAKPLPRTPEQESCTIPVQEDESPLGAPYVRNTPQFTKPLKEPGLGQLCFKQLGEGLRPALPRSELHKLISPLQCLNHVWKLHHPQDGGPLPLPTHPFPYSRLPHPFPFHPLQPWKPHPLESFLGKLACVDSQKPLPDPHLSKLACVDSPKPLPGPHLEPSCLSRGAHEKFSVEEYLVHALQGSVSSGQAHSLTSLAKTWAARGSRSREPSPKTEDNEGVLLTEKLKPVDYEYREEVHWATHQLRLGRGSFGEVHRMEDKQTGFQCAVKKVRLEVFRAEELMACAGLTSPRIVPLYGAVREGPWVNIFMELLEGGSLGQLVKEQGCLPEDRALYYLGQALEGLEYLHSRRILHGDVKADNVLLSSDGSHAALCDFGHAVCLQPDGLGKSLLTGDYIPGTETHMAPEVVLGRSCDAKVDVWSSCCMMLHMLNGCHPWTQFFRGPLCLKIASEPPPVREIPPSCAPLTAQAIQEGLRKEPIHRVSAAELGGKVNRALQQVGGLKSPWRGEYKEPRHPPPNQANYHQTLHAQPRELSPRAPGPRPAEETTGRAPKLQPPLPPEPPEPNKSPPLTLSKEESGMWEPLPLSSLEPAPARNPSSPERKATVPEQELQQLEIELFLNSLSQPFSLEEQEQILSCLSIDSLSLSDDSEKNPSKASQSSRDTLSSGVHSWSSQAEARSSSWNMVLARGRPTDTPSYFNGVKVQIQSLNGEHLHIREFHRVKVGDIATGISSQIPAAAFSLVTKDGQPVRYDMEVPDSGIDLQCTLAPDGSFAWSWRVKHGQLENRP

| Structure (SMILES) | IC50 [1] [nM] | IC50 [2] [nM] | melting point [°C] | IC50 [3] [nM] | IC50 [4] [nM] |
| --- | --- | --- | --- | --- | --- |
| COCCOc1ccc(Cl)cc1Nc1nccc(-c2cc(C#N)c3c(c2)[C@@](C)(CO)CN3)n1 [Compound 45] | > 10000 | 37.2 | 169 | 490 | 9.1 |
| COc1cc(P(C)(C)=O)ccc1Nc1nccc(-c2cc(C#N)c3c(c2)[C@@](C)(CO)CN3)n1 [Compound 64] | 1230 | 18.2 | 160 | ~246 | 1.8 |
| Cc1ccc(C#N)cc1Nc1nccc(-c2cc(C#N)c3c(c2)[C@](C)(CO)CN3)n1 [Compound 65] | > 10000 | 103 | 218 | 1100 | 4.1 |
| COCCOc1ccc(C#N)cc1Nc1nccc(-c2cc(C#N)c3c(c2)[C@@](C)(CO)CN3)n1 [Compound 66] | 19 | 5.9 | 165 | 251 | 3 |
| COc1cc(S(C)(=O)=O)ccc1Nc1nccc(-c2cc(C#N)c3c(c2)[C@@](C)(CO)CN3)n1 [Compound 73] | > 10000 | 1.4 | 201 | 68 | 2.2 |
| COCCCc1ccc(C#N)cc1Nc1nccc(-c2cc(C#N)c3c(c2)[C@@](C)(CO)CN3)n1 [Compound 74] | ~1150 | 16.2 | 124 | 182 | 4 |
| CN1CCC(Oc2ccc(Cl)cc2Nc2nccc(-c3cc(C#N)c4c(c3)C(C)(C)CN4)n2)CC1 [Compound 80] | 1000 | 209 | 192 | 124 | 15.2 |
| COc1cc(N2CCC(O)CC2)c(Cl)cc1Nc1nccc(-c2cc(C#N)c3c(c2)C(C)(C)CN3)n1 [Compound 105] | ~6610 | 22.9 | > 250 | 118 | 28.5 |
| Cc1ccc(C#N)cc1Nc1nccc(-c2cc(C#N)c3c(c2)[C@@](C)(CNS(C)(=O)=O)CN3)n1 [Compound 212] |  | ~4470 | 168 |  | 25.1 |
| Cc1ccc(CN2CCCC2)cc1Nc1nccc(-c2cc(C#N)c3c(c2)[C@@](C)(CO)CN3)n1 [Compound 216] |  | 144 | 108 |  | 49 |
| Cc1ccc(CNC2CC2)cc1Nc1nccc(-c2cc(C#N)c3c(c2)[C@@](C)(CO)CN3)n1 [Compound 218] |  | ~1230 | 115 |  | 3.6 |
| Cc1ccc(CN2CC(F)(F)C2)cc1Nc1nccc(-c2cc(C#N)c3c(c2)[C@@](C)(CO)CN3)n1 [Compound 219] |  | 5500 | 181 |  | 15.5 |
| Cc1ccc(CN2CCC(O)CC2)c(Nc2nccc(-c3cc(C#N)c4c(c3)[C@@](C)(CO)CN4)n2)c1 [Compound 221] |  | 646 | 181 |  | 32.4 |
| Cc1ccc(OC2CCN(C)CC2)c(Nc2nccc(-c3cc(C#N)c4c(c3)[C@@](C)(CO)CN4)n2)c1 [Compound 234] |  | 5.9 | 192 | 20 | 3.5 |
| CNCc1ccc(C)c(Nc2nccc(-c3cc(C#N)c4c(c3)[C@@](C)(CO)CN4)n2)c1 [Compound 239] |  | 355 | 116 |  | 13.8 |
